From PubChem BioAssay (NCI)
Values joined by “and” are separate entries in the source; they are usually repeats but may differ in a detail not shown here. Identical values can stand only once.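 Step 1: Grow cells in 96-well plates. Step 2: Expose to compound for 48 hours at 5 concentrations. Step 3: Interpolate endpoints linearly; if unreached, use highest concentration. Here, GI50 denotes the concentration required for 50% inhibition of growth. Definition used: TGI = concentration required for complete inhibition of growth.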

Assays:
Test in all cases: growth of human tumour cells (NCI), 48 h
[1] = system: IGROV1 ovarian
[2] = system: SN12C renal
[3] = system: U251 CNS
[4] = system: SK-MEL-5 melanoma
[5] = system: 786-0 renal
[6] = system: NCI-H23 lung
[7] = system: COLO 205 colon
[8] = system: SNB-19 CNS
[9] = system: OVCAR-8 ovarian
[10] = system: K-562 leukemia

| Structure (SMILES) | TGI [1] [µM] | TGI [2] | TGI [3] | TGI [4] | TGI [5] [µM] | TGI [6] | TGI [7] | TGI [8] | TGI [9] | TGI [10] [µM] | GI50 [2] | GI50 [3] | GI50 [5] | GI50 [8] | GI50 [9] | GI50 [1] [µM] | GI50 [4] [µM] | GI50 [10] [µM] | GI50 [6] [µM] |
| --- | --- | --- | --- | --- | --- | --- | --- | --- | --- | --- | --- | --- | --- | --- | --- | --- | --- | --- | --- |
| CO[C@H]1C[C@H](O[C@H]2CC[C@@]3(C)[C@H](CC[C@@H]4[C@@H]3CC[C@]3(C)[C@@H](C5=CC(=O)OC5)CC[C@]43O)C2)O[C@H](C)[C@H]1O | 0.113 | 0.0111 µM | 0.0197 µM | 0.0469 µM | < 0.0129 | 0.0178 µM | 0.235 µM | 0.143 µM | 0.0245 µM | – | – | – | – | – | – | – | – | – | – |
| NN=C1/C(=C\c2ccccc2)CCC/C1=C/c1ccccc1 | > 100 | > 100 µM | > 100 µM | – | > 100 | > 100 µM | 71.4 µM | > 100 µM | > 100 µM | 44 | – | – | – | – | – | – | – | – | – |
| CC1(C)C2CC(=O)C1(C)C(OCc1ccccc1)C2Br (stereo unspecified) | > 100 | 52.9 µM and > 100 µM | 44.6 µM and > 100 µM | 29.3 µM and > 100 µM | > 100 | 76.3 µM and > 100 µM | – | > 100 µM | 56.8 µM and > 100 µM | > 100 | 24.2 µM and 82.1 µM | 22.4 µM and 51.7 µM | 46500 nM and > 100000 nM | 47.2 µM and > 100 µM | 22.7 µM and 95.7 µM | – | – | – | – |
| NP1(Oc2ccc(F)cc2)=NP(N)(Oc2ccc(F)cc2)=NP(Oc2ccc(F)cc2)(Oc2ccc(F)cc2)=N1 (stereo unspecified) | 6.31 | 18.5 µM | 15.9 µM | 17.8 µM | 22.9 | 23.9 µM | 19.4 µM | 22.8 µM | 14.9 µM | – | – | – | – | – | – | – | – | – | – |
| O=C1c2c(c3c4ccccc4n(CC4CO4)c3c3[nH]c4ccccc4c23)C(=O)N1Cc1ccccc1 (stereo unspecified) | > 100 | > 100 µM | > 100 µM | – | > 100 | > 100 µM | – | > 100 µM | > 100 µM | > 100 | – | – | – | – | – | – | – | – | – |
| CCOC(=O)C1=C(C)N(NC(=O)Nc2ccccc2)C2(N)N(NC(=O)Nc3ccccc3)C(C)=C(C(=O)OCC)C12C#N (stereo unspecified) | 36.6 | 33 µM | 32.3 µM | – | 32.4 | 43.9 µM | 32.6 µM | – | 33.4 µM | 48.2 | – | – | – | – | – | – | – | – | – |
| C#Cc1c(C)c(/C=C/C(C)=C\C(=O)OC)n(C)c1C | > 100 | > 100 µM | > 100 µM | – | > 100 | > 100 µM | > 100 µM | > 100 µM | > 100 µM | > 100 | – | – | – | – | – | – | – | – | – |
| CC1OC(O[C@@H]2C=C3CC[C@@H]4[C@H](CC[C@]5(C)[C@@H](c6ccc(=O)oc6)CC[C@]45O)[C@@]3(C)CC2)C(O)C(O)C1O (stereo partly specified) | – | 0.003 µM and 0.0189 µM | – | 0.003 µM and 0.0122 µM | – | – | 0.0208 µM and 0.0477 µM | 0.0198 µM and 0.0319 µM | – | – | – | – | 0.0706 nM | – | – | – | – | – | – |
| CC(C)(c1ccc(C=O)o1)c1ccc(C(C)(C)c2ccc(C=O)o2)o1 | > 100 | – | > 100 µM | – | > 100 | > 100 µM | > 100 µM | > 100 µM | > 100 µM | > 100 | – | – | – | – | – | – | – | – | – |
| O=C(O)CCCCCNCc1cc2cc3c(cc2c2cc(OCc4ccccc4)ccc12)OCO3 | 10.1 | 19.8 µM | 3.28 µM | 3.3 µM | 3.25 | – | – | 20.7 µM | 3.21 µM | – | 5.42 µM | 1.73 µM | 1680 nM | 4.05 µM | 1.61 µM | 2.96 | 1.65 | – | – |
| C=C(C)[C@@H]1CC[C@]2(C(=O)O)CC[C@]3(C)[C@H](CC[C@@H]4[C@@]5(C)CCC(N)C(C)(C)[C@@H]5CC[C@]43C)[C@@H]12 (stereo partly specified) | 6.22 | 3.35 µM | 3.6 µM | – | 3.07 | – | – | – | – | 3.36 | 1.78 µM | 1.95 µM | 1590 nM | – | – | 2.41 | – | 0.682 | – |
| O=C1N(c2ccc(Cl)cc2)C(=O)C2(SC=NN2Cc2ccccc2)N1c1ccc(Cl)cc1 (stereo unspecified) | > 100 | > 100 µM | > 100 µM | > 100 µM | > 100 | > 100 µM | – | > 100 µM | > 100 µM | > 100 | – | – | – | – | – | – | – | – | – |
| CCCCCCCCCC(=O)Oc1ccc(/C(=C(/C)c2ccccc2)c2ccc(OCCN3CCCC3)cc2)cc1 | 19.5 | 17.9 µM | 15.4 µM | 14.9 µM | 16.8 | 16.1 µM | – | 17.7 µM | 20.8 µM | – | 9.15 µM | 8.01 µM | 8770 nM | 9.04 µM | 9.78 µM | 8.67 | 8.13 | – | 7.74 |
| N#Cc1sc2nc3c(c(-c4ccccc4)c2c1N)CCCC3 | – | > 100 µM | > 100 µM | – | > 100 | > 100 µM | – | > 100 µM | > 100 µM | > 100 | – | – | – | – | – | – | – | – | – |
| CSCSCC(CO)NC(=O)/C=C/c1c(C)[nH]c(=O)[nH]c1=O (stereo unspecified) | – | > 100 µM | > 100 µM | > 100 µM | > 100 | > 100 µM | – | > 100 µM | > 100 µM | > 100 | – | – | – | – | – | – | – | – | – |
| O=C(/C=C/c1ccco1)Nc1ncc(Cc2cc(Cl)ccc2Cl)s1 | > 100 | > 100 µM | > 100 µM | > 64.8 µM | > 100 | > 100 µM | – | > 100 µM | > 100 µM | > 100 | 0.117 µM | 0.0426 µM | 69.9 nM | 0.0585 µM | 0.12 µM | 0.0807 | 0.0441 | 0.0344 | 0.156 |
